{
  "source": "patent US20240083944A1",
  "about": "(priority 2021, published 2024)",
  "test_system": "SARS-CoV-2 pseudotyped HIV-1 virions, D614G",
  "note": "Starred links: 1 amine or outer side, 2 acyl side, 3 side chain; linkers in the order of their positions; H or OH if unused. Positions of bridges follow the written chain, without caps; N, C: chain ends. Non-standard residues stand in square brackets, D forms with d. Chains are numbered I, II in the order given. X2 = O=C(CCOCCN(CCOCCC(=O)NCCOCCOCCOCCOCCOCCOCCOCCOCCOCCOCCn1cc(CCC(=O)[*:2])nn1)CCOCCC(=O)NCCOCCOCCOCCOCCOCCOCCOCCOCCOCCOCCn1cc(CCC(=O)[*:3])nn1)NCCOCCOCCOCCOCCOCCOCCOCCOCCOCCOCCn1cc(CCC(=O)[*:1])nn1; X1 = C(c1nc(C[*:2])nc(C[*:3])n1)[*:1]; tBuAla = CC(C)(C)C[C@H](N)C(=O)O; Agb = N=C(N)NCC[C@H](N)C(=O)O",
  "data": [
    {"substance": "I: Ac-CPYVAG[Agb][dA]TCL[tBuAla]CK-NH2 / II: Ac-CPYVAG[Agb][dA]TCL[tBuAla]CK-NH2 / III: Ac-CPYVAG[Agb][dA]TCL[tBuAla]CK-NH2 (linker I:1-I:10-I:13, II:1-II:10-II:13, III:1-III:10-III:13 via X1; linker I:14-II:14-III:14 via X2) [BCY17021]", "values": [
      {"measurement": "IC50", "value": 0.5, "unit": "nM"}
    ]}
  ]
}
